This is an account of results in patent publication US7674771B2, “Antimicrobial peptides and utilization of the same” (Toagosei Co., Ltd, priority 2003, dated 2010).

For test [1], the system named is Staphylococcus aureus IFO 12732. Format: cell-based. The method, then: (§1) Regarding the antimicrobial peptide (samples 1 to 20) related to the present invention, the antimicrobial activities (minimum inhibitory concentration: MIC) with respect to gram-negative bacteria (Escherichia coli IFO 3972) and gram-positive bacteria (Staphylococcus aureus IFO 12732) were determined by a liquid medium dilution technique using a 96-well microplate.
(§2) First, a drug (synthesized polypeptide) solution having a concentration of 40 times of the highest test concentration was prepared using sterile distilled water, and liquid-bouillon mediums (more specifically, “Mueller Hinton Broth” manufactured by DIFCO) including cation and having drug concentrations of 100, 50, 25, 12.5, 6.3, 3.1, 1.6 and 0.8 μM were respectively produced. The cation included was prepared as follows: dissolving 3.68 g of CaCl2.2H2O in 100 mL of purified water (10 mg.Ca^2+/mL), and thereafter adding 500 μL thereof into 100 mL of Mueller Hinton Broth; and dissolving 8.36 g of MgCl2.6H2O in 100 mL of purified water (10 mg.Mg^2+/mL), and thereafter adding 250 μL thereof into 100 mL of Mueller Hinton Broth. Thereafter, the produced liquid-bouillon mediums including the drug of each concentration were then fed to the 96-well microplate at […] a time.
(§3) At the same time, test bacteria cultured for 18 hours at 37° C. on an agar plate (“Muller Hinton Agar” manufactured by DIFCO) were gathered by scratching with a loop, and then suspended in a sterilized physiological saline. Bacterial suspension 5 μL prepared at an equivalent of 2×10^7 cells/mL was respectively inoculated (number of bacteria to be tested: approximately 1×10^6 cells/mL) onto the drug solution and fed to each well of the above-described microplate. After inoculation, the microplate was then incubated in an incubator at 37° C., and the presence of bacteria was evaluated based on the turbidity 24 hours later. The minimum drug concentration (polypeptide concentration), in which an increased in turbidity caused by bacteria was not detected at the time of measurement, was defined as MIC (minimum inhibitory concentration) (unit: μM) in the present embodiment. In addition, MIC were determined in the same manner using polymyxin B as a comparison.

For test [2], the system named is Escherichia coli IFO 3972. The test is described as follows: MIC by liquid medium dilution technique, 96-well microplate, gram-negative bacteria. In kind it is cell-based. The method, then:
as §1, §2, §3

Test [3] deals with S. aureus. In kind it is cell-based, Staphylococcus aureus. The method, then:
as §2, §3
Next, the antimicrobial activities (MIC) against gram-positive bacteria (S. aureus) in the presence of serum were tested with the same method as Example 2. […] Thereafter, the produced liquid-bouillon mediums including the drug and the serum of each concentration were then fed to the 96-well microplate at […] a time, and MIC were determined by the method same as Example 2. Sample X in the table is a mixture of sample 1 and sample 16 based on a mass ratio of 1:1. “-” in the table indicate “untested”.

Setting [4] is: Mueller Hinton Broth with cation, 37° C., turbidity after 24 hours.

Read-outs that look alike come from different tables or passages of the source. Peptide text beside a SMILES is read from it.

As for “H-LMWWML-NH2 [comparative sample 3, LMWWML-CONH2, reference compound]”, the “Antimicrobial Activities (MIC) S. aureus” value in test [1] (IFO 12732, 24 h) is greater than 100 µM. In addition, in test [2] (IFO 3972, 24 h), the “Antimicrobial Activities (MIC) E. coli” value was greater than 100 µM.
“H-RKKRRQRRRLMWWML-NH2 [sample 19, RKKRRQRRRLMWWML-CONH2]”: the “Antimicrobial Activities (MIC) S. aureus” value in test [1] (IFO 12732, 24 h) was determined as 6.3 µM. Further, the “Antimicrobial Activities (MIC) E. coli” value in test [2] (IFO 3972, 24 h) worked out at 12.5 µM.
On the same counts, the results for “H-RKKKRKVLLTAKMR-NH2 [sample 10, RKKKRKVLLTAKMR-CONH2]” are 12.5 µM and 50 µM.
Turning to “H-RIRKKLRLMWWMLAR-NH2 [sample 7, RIRKKLRLMWWMLAR-CONH2]”, in test [3], the “Antimicrobial Activities (MIC) against S. aureus, horse serum concentration 10%” value is 3.1 µM; the “Antimicrobial Activities (MIC) against S. aureus, horse serum concentration 20%” value stood at 6.3 µM; the “Antimicrobial Activities (MIC) against S. aureus, horse serum concentration 50%” value stood at 6.3 µM. Further, in test [1] (IFO 12732, 24 h), the “Antimicrobial Activities (MIC) S. aureus” value came out at 3.1 µM. In addition, the “Antimicrobial Activities (MIC) E. coli” value in test [2] (IFO 3972, 24 h) was 6.3 µM.
As to “H-RKKKRKVFFYMVIR-NH2 [sample 11, RKKKRKVFFYMVIR-CONH2]”, the “Antimicrobial Activities (MIC) S. aureus” value in test [1] (IFO 12732, 24 h) was 3.1 µM. Besides, the “Antimicrobial Activities (MIC) E. coli” value in test [2] (IFO 3972, 24 h) was found to be 6.3 µM.
On to “H-LMWWMLRIRKKLR-NH2 [sample 4, LMWWMLRIRKKLR-CONH2]”, for which, in test [3], the “Antimicrobial Activities (MIC) against S. aureus, horse serum concentration 10%” value was determined as 6.3 µM. The “Antimicrobial Activities (MIC) S. aureus” value in test [1] (IFO 12732, 24 h) is 3.1 µM. In addition, the “Antimicrobial Activities (MIC) E. coli” value in test [2] (IFO 3972, 24 h) is 6.3 µM.
As to “H-LKRKLQRLMWWML-NH2 [sample 15, LKRKLQRLMWWML-CONH2]”, the “Antimicrobial Activities (MIC) against S. aureus, horse serum concentration 10%” value in test [3] stood at 6.3 µM. Moreover, the “Antimicrobial Activities (MIC) S. aureus” value in test [1] (IFO 12732, 24 h) was found to be 3.1 µM. In addition, in test [2] (IFO 3972, 24 h), the “Antimicrobial Activities (MIC) E. coli” value amounted to 12.5 µM.
Consider “H-LMWWMLRIRKKLRVGR-NH2 [sample 20, LMWWMLRIRKKLRVGR-CONH2]”, for which the “Antimicrobial Activities (MIC) S. aureus” value in test [1] (IFO 12732, 24 h) stood at 3.1 µM. In test [2] (IFO 3972, 24 h), the “Antimicrobial Activities (MIC) E. coli” value is 6.3 µM.
On the same counts, the results for “H-RKKKRKVYIGSR-NH2 [comparative sample 7, RKKKRKVYIGSR-CONH2, reference compound]” are 12.5 µM and 100 µM.
As for “H-RKRRLMWWMLKKLR-NH2 [sample 17, RKRRLMWWMLKKLR-CONH2]”, the “Antimicrobial Activities (MIC) S. aureus” value in test [1] (IFO 12732, 24 h) was 3.1 µM. Also, the “Antimicrobial Activities (MIC) E. coli” value in test [2] (IFO 3972, 24 h) is 6.3 µM.
On the same counts, the results for “H-RLLTAKMLMWWMLR-NH2 [comparative sample 5, RLLTAKMLMWWMLR-CONH2, reference compound]” are 12.5 µM and greater than 100 µM.
The matching figures for “H-RKKKRKVLMWWML-NH2 [sample 2, RKKKRKVLMWWML-CONH2]”: 3.1 µM and 12.5 µM.
On to “H-RAVTLYLGAVAA-NH2 [comparative sample 4, RAVTLYLGAVAA-CONH2, reference compound]”, for which the “Antimicrobial Activities (MIC) S. aureus” value in test [1] (setting [4]) is greater than 100 µM. In addition, the “Antimicrobial Activities (MIC) E. coli” value in test [2] (setting [4]) is greater than 100 µM.
For the compound “H-RKKKRKVLYLGAVR-NH2 [sample 12, RKKKRKVLYLGAVR-CONH2]”, the “Antimicrobial Activities (MIC) S. aureus” value in test [1] (IFO 12732, 24 h) came out at 12.5 µM. The “Antimicrobial Activities (MIC) E. coli” value in test [2] (IFO 3972, 24 h) was 50 µM.
Take polymyxin B [reference compound]: in test [3] (horse serum 10%), the “Antimicrobial Activities (MIC) against S. aureus, horse serum concentration 10%” value amounted to 6.3 µM. Moreover, in test [3] (horse serum 20%), the “Antimicrobial Activities (MIC) against S. aureus, horse serum concentration 20%” value stood at 6.3 µM. For the same compound, the “Antimicrobial Activities (MIC) against S. aureus, horse serum concentration 50%” value in test [3] (horse serum 50%) was 3.1 µM. Besides, the “Antimicrobial Activities (MIC) S. aureus” value in test [1] (setting [4]) was 6.3 µM. In test [2] (setting [4]), the “Antimicrobial Activities (MIC) E. coli” value came out at 1.6 µM.
With “H-LKRKLQRLMWWMLR-NH2 [sample 18, LKRKLQRLMWWMLR-CONH2]”, in test [1] (IFO 12732, 24 h), the “Antimicrobial Activities (MIC) S. aureus” value was determined as 6.3 µM. Further, in test [2] (IFO 3972, 24 h), the “Antimicrobial Activities (MIC) E. coli” value was determined as 12.5 µM.
“H-RKKKRKVLMWWMLR-OH [sample 16, RKKKRKVLMWWMLR-COOH]”: the “Antimicrobial Activities (MIC) against S. aureus, horse serum concentration 10%” value in test [3] stood at 3.1 µM. Further, the “Antimicrobial Activities (MIC) S. aureus” value in test [1] (IFO 12732, 24 h) was determined as 3.1 µM. For the same compound, the “Antimicrobial Activities (MIC) E. coli” value in test [2] (IFO 3972, 24 h) was 12.5 µM.
Take “H-RKKKRKVLMWWMLAR-NH2 [sample 6, RKKKRKVLMWWMLAR-CONH2]”: the “Antimicrobial Activities (MIC) against S. aureus, horse serum concentration 10%” value in test [3] (horse serum 10%) is 3.1 µM. Also, the “Antimicrobial Activities (MIC) against S. aureus, horse serum concentration 20%” value in test [3] (horse serum 20%) was found to be 3.1 µM. Also, the “Antimicrobial Activities (MIC) against S. aureus, horse serum concentration 50%” value in test [3] (horse serum 50%) worked out at 1.6 µM. Besides, the “Antimicrobial Activities (MIC) S. aureus” value in test [1] (setting [4]) was 6.3 µM. Besides, the “Antimicrobial Activities (MIC) E. coli” value in test [2] (setting [4]) was determined as 12.5 µM.
Regarding “H-RGDLMWWMLAR-NH2 [comparative sample 1, RGDLMWWMLAR-CONH2, reference compound]”, the “Antimicrobial Activities (MIC) against S. aureus, horse serum concentration 10%” value in test [3] was greater than 50 µM. Also, in test [1] (IFO 12732, 24 h), the “Antimicrobial Activities (MIC) S. aureus” value is greater than 100 µM. Further, the “Antimicrobial Activities (MIC) E. coli” value in test [2] (IFO 3972, 24 h) is greater than 100 µM.
Turning to “H-RKKKRKVVVYWLLR-NH2 [sample 9, RKKKRKVVVYWLLR-CONH2]”, the “Antimicrobial Activities (MIC) S. aureus” value in test [1] (IFO 12732, 24 h) stood at 3.1 µM. Besides, in test [2] (IFO 3972, 24 h), the “Antimicrobial Activities (MIC) E. coli” value worked out at 12.5 µM.
Regarding “H-RKKKRKVLMWWMLKPV-NH2 [sample 21, RKKKRKVLMWWMLKPV-CONH2]”, the “Antimicrobial Activities (MIC) against S. aureus, horse serum concentration 10%” value in test [3] was found to be 1.6 µM. Besides, in test [3] (horse serum, Table 3), the “antimicrobial activity against S. aureus in the presence of serum, in words” value is listed as “particularly high antimicrobial activity”.
Consider “H-RKRKRKRLMWWML-NH2 [sample 13, RKRKRKRLMWWML-CONH2]”, for which the “Antimicrobial Activities (MIC) S. aureus” value in test [1] (IFO 12732, 24 h) stood at 3.1 µM. Besides, the “Antimicrobial Activities (MIC) E. coli” value in test [2] (IFO 3972, 24 h) turned out to be 6.3 µM.
Consider “H-LMWWMLRKKKRKV-NH2 [sample 5, LMWWMLRKKKRKV-CONH2]”, for which, in test [1] (IFO 12732, 24 h), the “Antimicrobial Activities (MIC) S. aureus” value amounted to 3.1 µM. The “Antimicrobial Activities (MIC) E. coli” value in test [2] (IFO 3972, 24 h) worked out at 50 µM.
On the same counts, the results for `C[C@@H](O)[C@H](N)C(=O)NCC(=O)N[C@H](C(=O)NCC(N)=O)[C@@H](C)O` [comparative sample 2, TGTG-CONH2, reference compound] (H-TGTG-NH2) are greater than 100 µM and greater than 100 µM.
For the compound “Ac-RKKKRKVLMWWMLR-NH2 [sample 8, Ac-RKKKRKVLMWWMLR-CONH2]”, in test [3], the “Antimicrobial Activities (MIC) against S. aureus, horse serum concentration 10%” value was 3.1 µM and the “Antimicrobial Activities (MIC) against S. aureus, horse serum concentration 50%” value stood at 6.3 µM. The “Antimicrobial Activities (MIC) S. aureus” value in test [1] (IFO 12732, 24 h) amounted to 3.1 µM. Also, in test [2] (IFO 3972, 24 h), the “Antimicrobial Activities (MIC) E. coli” value turned out to be 12.5 µM.
Take “H-RIRKKLRYIGSR-NH2 [comparative sample 6, RIRKKLRYIGSR-CONH2, reference compound]”: the “Antimicrobial Activities (MIC) S. aureus” value in test [1] (IFO 12732, 24 h) came to 50 µM. Also, the “Antimicrobial Activities (MIC) E. coli” value in test [2] (IFO 3972, 24 h) is greater than 100 µM.
Turning to “H-RIRKKLRLMWWMLR-NH2 [sample 14, RIRKKLRLMWWMLR-CONH2]”, the “Antimicrobial Activities (MIC) against S. aureus, horse serum concentration 10%” value in test [3] came to 6.3 µM. Further, in test [1] (IFO 12732, 24 h), the “Antimicrobial Activities (MIC) S. aureus” value was found to be 3.1 µM. Moreover, in test [2] (IFO 3972, 24 h), the “Antimicrobial Activities (MIC) E. coli” value came out at 6.3 µM.
